Experimental data published in patent publication US7595345B2, “Vitamin D receptor modulators” (Eli Lilly and Company, priority 2003, dated 2009).

Tested on: KERtr cells
Assay: Keratinocyte proliferation assay
Type: cell-based
Conditions: Homo sapiens, 72 hr, BrdU incorporation, read-out: Kera. Prolif. IC50
Experimental: 5. The Keratinocyte Proliferation Assay
This Assay is indicative for the treatment of psoriasis.
(5) The Keratinocyte Proliferation Assay:
KERtr cells (Human skin keratinocyte transformed with a retrovirus vector, obtained from ATCC) were plated in 96-well flat-bottomed plates (3000 cells/well) in 100 µl keratinocyte serum free medium supplemented with bovine pituitary extract in the absence of EGF (Life Technologies, Rockville, Md.) and incubated at 37° C. for two days. The cells were treated with various concentrations of VDR ligands (ten-fold serial dilution from 10,000 nM to 0.1 nM in triplicate), dissolved in 100 µl keratinocyte serum free medium supplemented with bovine pituitary extract in the absence of EGF and incubated at 37° C. for 72 hr. BrdU (5-bromo-2′-deoxyuridine) incorporation was analyzed as a measure of DNA replication (Cell proliferation ELISA kit, Roche Diagnostics, Indianapolis, Ind.) and absorbance was measured at 405 nm. Potency values (IC50) values were determined as the concentration (nM) of compound that elicited a half-maximal response.

## CCC(O)(CC)COc1ccc(C(CC)(CC)c2ccc(C(=O)NCC(=O)O)c(C)c2)cc1C [Ex. 3, (4-{1-ethyl-1-[4-(2-ethyl-2-hydroxy-butoxy)-3-methyl-phenyl]-propyl}-2-methyl-benzoylamino)-acetic acid]
  IC50: 121 nM
